Where two headings read alike, the source gives them in different places.

The assay addresses T1, MAN2C1 (Homo sapiens, UniProt Q9NTJ4).
T1 construct: expressed in transfected cells
T1 sequence (Q9NTJ4 1-1040): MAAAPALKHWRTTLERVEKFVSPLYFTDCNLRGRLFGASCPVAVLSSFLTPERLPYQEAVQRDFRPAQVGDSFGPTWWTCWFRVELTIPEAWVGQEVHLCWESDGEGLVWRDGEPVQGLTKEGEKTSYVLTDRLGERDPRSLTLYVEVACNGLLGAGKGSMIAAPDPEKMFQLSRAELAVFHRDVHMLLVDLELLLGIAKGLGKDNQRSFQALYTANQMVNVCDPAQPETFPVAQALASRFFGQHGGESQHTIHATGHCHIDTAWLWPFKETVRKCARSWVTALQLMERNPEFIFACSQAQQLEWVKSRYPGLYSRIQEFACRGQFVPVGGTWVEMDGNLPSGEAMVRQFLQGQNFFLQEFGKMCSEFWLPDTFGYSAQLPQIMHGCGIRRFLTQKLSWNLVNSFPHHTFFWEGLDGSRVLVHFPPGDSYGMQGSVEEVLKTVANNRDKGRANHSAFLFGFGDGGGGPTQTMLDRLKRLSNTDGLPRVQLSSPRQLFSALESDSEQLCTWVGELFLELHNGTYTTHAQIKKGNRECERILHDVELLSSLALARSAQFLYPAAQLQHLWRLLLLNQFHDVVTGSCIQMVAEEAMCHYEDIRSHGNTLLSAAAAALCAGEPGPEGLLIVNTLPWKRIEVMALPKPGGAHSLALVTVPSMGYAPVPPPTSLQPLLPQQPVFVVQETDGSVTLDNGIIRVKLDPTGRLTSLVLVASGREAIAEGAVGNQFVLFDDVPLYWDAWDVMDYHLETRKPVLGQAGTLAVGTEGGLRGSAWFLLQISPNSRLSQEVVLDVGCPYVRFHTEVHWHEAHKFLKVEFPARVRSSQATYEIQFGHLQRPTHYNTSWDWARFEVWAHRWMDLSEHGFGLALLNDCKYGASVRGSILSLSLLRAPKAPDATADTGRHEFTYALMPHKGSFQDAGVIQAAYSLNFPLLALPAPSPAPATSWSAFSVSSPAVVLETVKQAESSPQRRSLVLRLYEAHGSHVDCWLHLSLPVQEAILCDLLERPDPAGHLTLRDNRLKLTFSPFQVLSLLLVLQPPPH
Nature of the assay: 4-MU-α-man activity assay in overexpressed cell lysates. The assay is classed as biochemical. The text has this: Finally, selectivity versus a panel of related exo-mannosidases was investigated. We first tested inhibition against all five human GH38 retaining α-mannosidases in overexpressed cell lysates using 4-methylumbelliferyl-α-mannoside (4-MU-α-man): Golgi mannosidase II and IIx (MAN2A1 and MAN2A2), cytosolic MAN2C1 and lysosomal MAN2B1 and MAN2B2. This α-mannosidase family follows a different conformational itinerary than GH47: ^0S2 → B2,5 → ^1S5.[35] […] Of note, the presence of cobalt has been associated with conformational changes in the active site of some GH38 α-mannosidases, which might affect the binding interaction with inhibitors.[36] Nevertheless, additional research is required to explore which specific metal ion is present in the MAN2C1 active site in its in vivo state.
Trans-Cyclosulfamidate Cyclitols Males et al.
2.3 GH38 α-mannosidases and GH2 β-mannosidase inhibition studies
All chemicals were of analytical grade and purchased from Sigma-Aldrich unless stated otherwise.
Optimal stability of cell homogenates and enzyme working stocks was ensured by preparation and temporary storage on ice. Cell homogenates were prepared and used on the same day. Protein concentrations were quantified using the Pierce BCA Protein Assay Kit (ThermoFisher). Protein samples were measured in clear flat-bottom polystyrene 96 well microplates (Greiner Bio-One) using a EMax Plus Microplate Reader (Molecular Devices). Activity measurements of human GH38 α-mannosidases and bacterial β-mannosidase BtMan2A were performed in black flat-bottom polystyrene 96 wells microplates (Greiner Bio-One) and total fluorescence was measured using a Perkin Elmer LS-55 fluorescence spectrometer at wavelengths λex = 366 and λem = 445 nm, with the signal optimized for medium gain readings. The fluorescence values of each enzyme sample were corrected for the background signal of a blank sample containing no enzyme. In the case of IC50 determinations, values were normalized against a control sample containing enzyme without added inhibitor. For a single experiment, three separate curves were fitted from a technical triplicate by setting the inhibitor concentration in µM against the normalized response using GraphPad Prism 8.4.2 software. The Prism functions ‘[inhibitor] versus normalized response’ and ‘[inhibitor] versus normalized response -- variable slope’ were compared for each curve using the Akaike’s Information Criterion method to select the preferred model. Reported IC50 values are mean ± standard deviation from a biological […]
General cell culture protocol
HEK293T cells were grown to confluency at 37 °C under a 5% CO2 atmosphere in Dulbecco’s Modified Eagle’s Medium (DMEM) with a high glucose concentration (Capricorn Scientific, DMEM-HPXA) that was supplemented with 10% fetal calf serum, 0.1% (w/v) penicillin/streptomycin and 1% (v/v) Glutamax. Cells were passaged twice a week to new round polystyrene (PS) tissue culture dishes (Sarstedt) by detachment off the former culture plates by careful pipetting. To prepare cell pellets for activity measurements, plates were grown to confluency and harvested in phosphate buffered saline (PBS). After centrifugation at 1500 rpm for 5 min, the remaining PBS was aspirated and the cells were resuspended in fresh PBS. The concentration of the resulting suspension was then counted using a TC20 automated cell counter (BioRad). Aliquots were centrifuged at 2000 rpm for 5 min and the resulting cell pellets were stored at -80 °C until further use.
4-MU activity assay protocol for human GH38 α-mannosidases
HEK293T cells stably overexpressing human GH38 α-mannosidases MAN2A1, MAN2A2, MAN2B1, MAN2B2 and MAN2C1 were prepared as previously described[11] and were kindly donated by Dr. C. L.
Kuo. Homogenates were prepared by sonicating cell pellets (Sonics VibraCell, 5x1 s with 30 s interval at 20% amplitude) in 150 mM McIlvain buffer of pH 5.5 (MAN2A1, MAN2A2), pH 4.5 (MAN2B1, MAN2B2) or pH 6.7 (MAN2C1) containing either 2 mM ZnCl2 (MAN2A1, MAN2A2, MAN2B1, MAN2B2) […]

In the case of `O=S1(=O)N[C@@H]2[C@@H](O)[C@@H](O)[C@H](O)[C@@H](CO)[C@H]2O1` [compound 6, 1,6-trans-manno-cyclosulfamidate], the IC50 (as a rule, the concentration that inhibits the measured activity by half) runs as follows: (Co2+ (cobalt as the metal ion), read-out: IC50 (apparent)) 3.5 ± 1.2 µM; (Zn2+ (buffer supplemented with 1 mM ZnCl2 instead of CoCl2)) “no IC50 value could be determined”; (Zn2+ (buffer supplemented with 1 mM ZnCl2 instead of CoCl2), read-out: IC50) over 1000 µM.

These data come from PMC10685318, “Trans-cyclosulfamidate mannose-configured cyclitol allows isoform-dependent inhibition of GH47 α-D-mannosidases through a bump–hole strategy” (Chemical Science, 2023).
